# In patent publication US20220041647A1, “ESTRA-1,3,5(10)-TRIENE COMPOUNDS CONDENSED IN POSITION 16(17) WITH A PYRAZOLE RING AS INHIBITORS OF 17-HSD1” (FORENDO PHARMA LTD, priority 2018, published 2022):
# How the values were obtained:
# Assay type in all cases: biochemical
# [1] = molecular target: T1, recombinant human 17β-HSD1 (Homo sapiens, UniProt P14061); test: Inhibition of recombinant human 17β-HSD1 (estrone to estradiol conversion, HPLC/radioactivity); details: compound 100 nM; 30 nM estrone, 1 mM NADPH, 30 min RT
# T1 construct: made in house; host or cells: Sd9 (Sf9) insect cells, baculovirus (Bac to Bac Expression System)
# T1 sequence (P14061 1-328): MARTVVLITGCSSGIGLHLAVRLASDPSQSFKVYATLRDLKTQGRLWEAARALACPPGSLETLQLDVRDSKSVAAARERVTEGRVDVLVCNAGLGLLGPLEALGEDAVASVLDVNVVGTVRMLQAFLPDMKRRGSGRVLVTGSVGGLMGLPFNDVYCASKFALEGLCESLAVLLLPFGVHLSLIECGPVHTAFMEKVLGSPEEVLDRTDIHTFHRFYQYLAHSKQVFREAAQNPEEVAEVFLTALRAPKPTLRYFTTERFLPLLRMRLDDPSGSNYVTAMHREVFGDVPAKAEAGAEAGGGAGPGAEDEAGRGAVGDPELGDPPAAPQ
# Procedure: 17β-HSD1 production and isolation: Recombinant baculovirus was generated by the “Bac to Bac Expression System” (Invitrogen). Recombinant bacmid was transfected to Sd9 insect cells using “Cellfectin Reagent” (Invitrogen). 60 h later cells were harvested; the microsomal fraction was isolated as described by Puranen, T. J., Poutanen, M. H., Peltoketo, H. E., Vihko, P. T. and Vihko, R. K. (1994) Site-directed mutagenesis of the putative active site of human 17 β-hydroxysteroid dehydrogenase type 1. Biochem. J. 304: 289-293. Aliquots were stored frozen until determination of enzymatic activity.
# Assay—Inhibition of recombinant human 17β-HSD1: Recombinant protein (1 μg/ml) was incubated in 20 mM KH2PO4 pH 7.4 with 30 nM estrone (including 800 000 cpm/ml of ^3H-estrone) and 1 mM NADPH for 30 min at RT, in the presence of the potential inhibitor at concentrations 1 μM or 0.1 μM. Inhibitor stock solutions were prepared in DMSO. Final concentration of DMSO was adjusted to 1% in all samples. The enzyme reaction was stopped by addition of 10% trichloroacetic acid (final concentration). Samples were centrifuged in a microtiter plate at 4000 rpm for 10 min. Supernatants were applied to reverse phase HPLC on a Waters Symmetry C18 column, equipped with a Waters Sentry Guard column. Isocratic HPLC runs were performed at RT at a flow rate of 1 ml/min in acetonitrile:water 48:52 as running solvent. Radioactivity was monitored in the eluate by a Scintillation Analyzer. Total radioactivity for estrone and estradiol were determined in each sample and percent conversion of estrone to estradiol was calculated according to the following formula:
# % conversion=100×{(cpm estradiol in sample with inhibitor)/[(cpm estrone in sample with inhibitor)+(cpm estradiol in sample with inhibitor)]}/{[(cpm estradiol in sample without inhibitor)/[(cpm estrone in sample without inhibitor)+(cpm estradiol in sample without inhibitor)]}.
# (§1) Percent inhibition was calculated followingly: % inhibition=100−% conversion.
# [2] = molecular target: T2, recombinant human 17β-HSD2 (Homo sapiens, UniProt P37059); test: Inhibition of recombinant human 17β-HSD2 (estradiol to estrone conversion, HPLC/radioactivity); details: compound 1 μM; 50 nM estradiol, 1 mM NADH, 30 min RT
# T2 construct: made in house; host or cells: Sd9 (Sf9) insect cells, baculovirus (Bac to Bac Expression System)
# T2 sequence (P37059 1-387): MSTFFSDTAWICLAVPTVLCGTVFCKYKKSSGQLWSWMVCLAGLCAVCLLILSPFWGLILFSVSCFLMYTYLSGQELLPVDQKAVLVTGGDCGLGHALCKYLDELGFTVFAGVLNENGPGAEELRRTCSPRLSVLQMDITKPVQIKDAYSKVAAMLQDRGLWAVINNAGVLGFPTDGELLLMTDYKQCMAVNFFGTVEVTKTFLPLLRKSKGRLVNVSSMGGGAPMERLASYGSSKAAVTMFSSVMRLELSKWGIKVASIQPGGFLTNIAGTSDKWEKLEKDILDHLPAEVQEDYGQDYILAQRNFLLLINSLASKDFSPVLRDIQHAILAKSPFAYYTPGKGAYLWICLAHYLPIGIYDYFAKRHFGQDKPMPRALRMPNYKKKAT
# Procedure: 17β-HSD2 production and isolation: Similarly to 173-HSD1 the Recombinant baculovirus was generated by the “Bac to Bac Expression System” (Invitrogen). Recombinant bacmid was transfected to Sd9 insect cells using “Cellfectin Reagent” (Invitrogen). 60 h later cells were harvested and supernatant were fractionated by the following protocol: • cells were dissolved into 40 ml of A-buffer (40 mM TRIS, pH8.0, 20% glycerol, 20 μM NAD, 0.4 mM PMSF, 150 mM NaCl, 0.5% dodecyl-β-maltoside+protease inhibitor cocktail) • cells were sonicated • lysate was incubated on ice for 15 min • lysate was centrifuged 5000 rpm 15 min, +4° C. • centrifugation of the supernatant 180 000 g 30 min, +4° C. • pellet was dissolved into 8 ml of A-buffer • not resuspended material was removed by centrifugation 5000 rpm 15 min, +4° C. • the clear supernatant was divided into 100 μl aliquots and were stored frozen until determination of enzymatic activity.
# The amount of 173-HSD2 was analysed by immunoblotting and total protein concentration of each extract batch was determined.
# Assay—Inhibition of recombinant human 17β-HSD2: Recombinant protein (4 μg/ml) was incubated in 20 mM KH2PO4 pH 8.5 with 50 nM estradiol (including 800 000 cpm/ml of ^3H-estradiol) and 1 mM NADH for 30 min at RT, in the presence of the potential inhibitor at concentrations 1 μM or 0.1 μM. Inhibitor stock solutions were prepared in DMSO. Final concentration of DMSO was adjusted to 1% in all samples. The enzyme reaction was stopped by addition of 10% trichloroacetic acid (final concentration). Samples were centrifuged in a microtiter plate at 4000 rpm for 10 min. Supernatants were applied to reverse phase HPLC on a Waters Symmetry C18 column, equipped with a Waters Sentry Guard column. Isocratic HPLC runs were performed at RT at a flow rate of1 ml/min in acetonitrile:water 48:52 as running solvent. Radioactivity was monitored in the eluate by a Scintillation Analyzer. Total radioactivity for estrone and estradiol were determined in each sample and percent conversion of estradiol to estrone was calculated according to the following formula:
# % conversion=100×{(cpm estrone in sample with inhibitor)/[(cpm estradiol in sample with inhibitor)+(cpm estrone in sample with inhibitor)]}/{[(cpm estrone in sample without inhibitor)/[(cpm estradiol in sample without inhibitor)+(cpm estrone in sample without inhibitor)]}.
# as §1
# [3] = test system: HSD1 enzyme that is expressed in rabbit placenta tissue; test: Inhibition of E1 to E2 conversion in rabbit placenta tissue homogenate; details: compound 100 nM, 30 nM estrone, 1 mM β-NADPH, 30 min
# Procedure: The assay is based on an enzymatic reaction where HSD1 enzyme that is expressed in rabbit placenta tissue converts its natural substance estrone (E1) to estradiol (E2) in the presence of a co-factor β-NADPH.
# Homogenization of rabbit placenta tissue: Weight a piece of the frozen tissue into a Precellys ck28 bead tube. Add buffer solution (20 mM KH2PO4 with 1 mM EDTA, pH 7.4) in 1:2 ratio (e.g. 300 mg of tissue:600 μl reaction buffer solution). Insert the bead tubes to homogenizer and homogenize 2×30 s. 6000 rpm.
# Centrifugated 5 min., 2600 rpm at +4° C. and collect supernatant. Aliquots of homogenate are stored in −80° C.
# Assay—Inhibition of E1 to E2 conversion in rabbit placenta tissue: The reaction takes place in a buffer solution (20 mM KH2PO4 with 1 mM EDTA, pH 7,4), including appropriate amount of rabbit placenta homogenate, co-factor (1 mM β-NADPH), Substrate (30 nM estrone), labelled substrate as tracer (5 nM [^3H]-estrone), and the potential inhibitor at concentrations 1 μM or 0.1 μM. Inhibitor stock solutions were prepared in DMSO. Final concentration of DMSO was adjusted to 1% in all samples. During a 30-minute incubation part of the estrone is converted to estradiol. The reaction is stopped by lowering the pH to 1 with 10% trichloro acetic acid (TCA). The substrate and conversion products are analyzed by HPLC and a Scintillation counter analyzer. Total radioactivity for estrone and estradiol were determined in each sample and percent conversion of estrone to estradiol was calculated according to the following formula:
# % conversion=100×{(cpm estradiol in sample with inhibitor)/[(cpm estrone in sample with inhibitor)+(cpm estradiol in sample with inhibitor)]}/{(cpm estradiol in sample without inhibitor)/[(cpm estrone in sample without inhibitor)+(cpm estradiol in sample without inhibitor)]}.
# as §1
Structure (SMILES),inhibition at 0.1 µM [1] [%],inhibition at 1 µM [2] [%],Rabbit placenta inhibition % @100 nM [3] [%]
"Cc1nnc(NC(=O)CC[C@@H]2c3c[nH]nc3[C@@]3(C)CCC4c5cccc(F)c5CCC4C23)o1 (stereo partly drawn) [Compound 66, 3-((8aS,12S)-3-fluoro-8a-methyl-1,2,6b,7,8,8a,10,12,12a,12b-decahydronaphtho[2′,1′:4,5]indeno[1,2-c]pyrazol-12-yl)-N-(5-methyl-1,3,4-oxadiazol-2-yl)propanamide]",74,3,39
"C[C@]12CCC3c4cccc(F)c4CCC3C1[C@H](CCC(=O)NN1CCCCC1)c1c[nH]nc12 (stereo partly drawn) [Compound 69, 3-((8aS,12S)-3-fluoro-8a-methyl-1,2,6b,7,8,8a,10,12,12a,12b-decahydronaphtho[2′,1′:4,5]indeno[1,2-c]pyrazol-12-yl)-N-(piperidin-1-yl)propanamide]",93,1,10
"CN1CCC(N2CCN(C(=O)CC[C@@H]3c4c[nH]nc4[C@@]4(C)CCC5c6cccc(F)c6CCC5C34)CC2)CC1 (stereo partly drawn) [Compound 75, 3-((8aS,12S)-3-fluoro-8a-methyl-1,2,6b,7,8,8a,10,12,12a,12b-decahydronaphtho[2′,1′:4,5]indeno[1,2-c]pyrazol-12-yl)-1-(4-(1-methylpiperidin-4-yl)piperazin-1-yl)propan-1-one]",71,2,15
"Cc1cc(NC(=O)CC[C@@H]2c3c[nH]nc3[C@@]3(C)CCC4c5cccc(F)c5CCC4C23)no1 (stereo partly drawn) [Compound 78, 3-((8aS,12S)-3-fluoro-8a-methyl-1,2,6b,7,8,8a,10,12,12a,12b-decahydronaphtho[2′,1′:4,5]indeno[1,2-c]pyrazol-12-yl)-N-(5-methylisoxazol-3-yl)propanamide]",87,3,39
"C[C@]12CCC3c4cccc(F)c4CCC3C1[C@H](CCC(=O)Nc1nncs1)c1c[nH]nc12 (stereo partly drawn) [Compound 81, 3-((8aS,12S)-3-fluoro-8a-methyl-1,2,6b,7,8,8a,10,12,12a,12b-decahydronaphtho[2′,1′:4,5]indeno[1,2-c]pyrazol-12-yl)-N-(1,3,4-thiadiazol-2-yl)propanamide]",81,3,31
"CC(C)(C)c1cc(NC(=O)CC[C@@H]2c3c[nH]nc3[C@@]3(C)CCC4c5ccc(F)cc5CCC4C23)no1 (stereo partly drawn) [Compound 102, N-(5-(tert-butyl)isoxazol-3-yl)-3-((8aS,12 S)-4-fluoro-8a-methyl-1,2,6b,7,8,8a,10,12,12a,12b-decahydronaphtho[2′,1′:4,5]indeno[1,2-c]pyrazol-12-yl)propanamide]",80,8,19
"C[C@]12CCC3c4ccc(F)cc4CCC3C1[C@H](CCC(=O)Nc1cccc(F)n1)c1c[nH]nc12 (stereo partly drawn) [Compound 105, 3-((8aS,12S)-4-fluoro-8a-methyl-1,2,6b,7,8,8a,10,12,12a,12b-decahydronaphtho[2′,1′:4,5]indeno[1,2-c]pyrazol-12-yl)-N-(6-fluoropyridin-2-yl)propanamide]",82,9,28
"COc1ccc(NC(=O)CC[C@@H]2c3c[nH]nc3[C@@]3(C)CCC4c5ccc(F)cc5CCC4C23)nn1 (stereo partly drawn) [Compound 108, 3-((8aS,12S)-4-fluoro-8a-methyl-1,2,6b,7,8,8a,10,12,12a,12b-decahydronaphtho[2′,1′:4,5]indeno[1,2-c]pyrazol-12-yl)-N-(6-methoxypyridazin-3-yl)propanamide]",56,-2,45
"Cc1ccc(NC(=O)CC[C@@H]2c3c[nH]nc3[C@@]3(C)CCC4c5ccc(F)cc5CCC4C23)nn1 (stereo partly drawn) [Compound 111, 3-((8aS,12S)-4-fluoro-8a-methyl-1,2,6b,7,8,8a,10,12,12a,12b-decahydronaphtho[2′,1′:4,5]indeno[1,2-c]pyrazol-12-yl)-N-(6-methylpyridazin-3-yl)propanamide]",48,1,55
"C[C@]12CCC3c4ccc(F)cc4CCC3C1[C@H](CCC(=O)Nc1cccnn1)c1c[nH]nc12 (stereo partly drawn) [Compound 114, 3-((8aS,12S)-4-fluoro-8a-methyl-1,2,6b,7,8,8a,10,12,12a,12b-decahydronaphtho[2′,1′:4,5]indeno[1,2-c]pyrazol-12-yl)-N-(pyridazin-3-yl)propanamide]",53,-1,43
